In patent publication US11597704B2, “2,4-diaminoquinazoline derivatives and medical uses thereof” (Janssen Sciences Ireland Unlimited Company, priority 2018, dated 2023):

Assays:
[1] = biological target: T1, human TLR8 (Homo sapiens, UniProt Q9NR97); test: TLR8 NFκB-luc cellular reporter assay in transiently transfected HEK293 cells; format: cell-based; details: lowest effective concentration; HEK293 cells transfected with wild type TLR8 and NFκB-luc reporter, 6 h incubation
T1 construct: expressed in transfected cells; host or cells: HEK293
T1 sequence (Q9NR97 27-1041): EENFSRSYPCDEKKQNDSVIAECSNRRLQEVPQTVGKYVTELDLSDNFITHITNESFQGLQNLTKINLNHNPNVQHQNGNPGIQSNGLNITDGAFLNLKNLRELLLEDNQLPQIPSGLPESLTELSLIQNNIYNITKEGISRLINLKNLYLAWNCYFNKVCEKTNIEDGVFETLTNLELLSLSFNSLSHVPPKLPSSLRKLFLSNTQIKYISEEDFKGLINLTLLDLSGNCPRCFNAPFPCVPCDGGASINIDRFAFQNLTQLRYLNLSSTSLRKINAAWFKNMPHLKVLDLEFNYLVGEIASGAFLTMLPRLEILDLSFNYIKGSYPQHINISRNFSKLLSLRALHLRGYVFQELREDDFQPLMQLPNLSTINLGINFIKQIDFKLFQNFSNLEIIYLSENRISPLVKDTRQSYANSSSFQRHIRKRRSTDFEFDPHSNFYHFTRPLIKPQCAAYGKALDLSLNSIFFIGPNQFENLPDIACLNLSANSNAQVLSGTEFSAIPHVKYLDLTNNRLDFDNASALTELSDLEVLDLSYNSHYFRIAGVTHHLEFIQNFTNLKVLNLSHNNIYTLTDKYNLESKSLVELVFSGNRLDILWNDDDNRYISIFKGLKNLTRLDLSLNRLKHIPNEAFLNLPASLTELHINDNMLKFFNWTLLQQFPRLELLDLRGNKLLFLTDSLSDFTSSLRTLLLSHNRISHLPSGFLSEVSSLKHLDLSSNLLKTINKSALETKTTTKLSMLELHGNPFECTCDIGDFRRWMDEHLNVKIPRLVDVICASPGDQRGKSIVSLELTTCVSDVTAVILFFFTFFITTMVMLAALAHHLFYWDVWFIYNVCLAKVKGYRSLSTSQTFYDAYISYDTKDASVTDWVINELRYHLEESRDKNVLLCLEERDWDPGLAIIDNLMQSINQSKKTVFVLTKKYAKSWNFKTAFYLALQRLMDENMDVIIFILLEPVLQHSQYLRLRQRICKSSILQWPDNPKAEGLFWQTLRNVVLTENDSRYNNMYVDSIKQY
Method: (§1) The ability of compounds to activate human TLR7 and/or TLR8 was assessed in a cellular reporter assay using HEK293 cells transiently transfected with a TLR7 or TLR8 expression vector and NFκB-luc reporter construct. In one instance, the TLR expression construct expresses the respective wild type sequence or a mutant sequence comprising a deletion in the second leucine-rich repeat of the TLR.
(§2) HEK293 cells were grown in culture medium (DMEM supplemented with 10% FCS and 2 mM Glutamine). For transfection of cells in 10 cm dishes, cells were detached with Trypsin-EDTA, transfected with a mix of CMV-TLR7 or TLR8 plasmid (750 ng), NFκB-luc plasmid (375 ng) and a transfection reagent and incubated 24 h at 37° C. in a humidified 5% C02 atmosphere. Transfected cells were then detached with Trypsin-EDTA, washed in PBS and re-suspended in medium to a density of 1.67×10^5 cells/mL. Thirty microliters of cells were then dispensed into each well in 384-well plates, where 10 μL of compound in 4% DMSO was already present. Following 6 h incubation at 37° C., 5% CO2, the luciferase activity was determined by adding 15 μl of STEADY LITE PLUS substrate (PERKIN ELMER) to each well and readout performed on a VIEWLUX ULTRAHTS microplate imager (PERKIN ELMER). Dose response curves were generated from measurements performed in quadruplicates. Lowest effective concentrations (LEC) values, defined as the concentration that induces an effect which is at least two-fold above the standard deviation of the assay, were determined for each compound.

[2] = biological target: T2, human TLR7 (Homo sapiens, UniProt Q9NYK1); test: TLR7 NFκB-luc cellular reporter assay in transiently transfected HEK293 cells; format: cell-based; details: lowest effective concentration; HEK293 cells transfected with wild type TLR7 and NFκB-luc reporter, 6 h incubation
T2 construct: expressed in transfected cells; host or cells: HEK293
T2 sequence (Q9NYK1 27-1049): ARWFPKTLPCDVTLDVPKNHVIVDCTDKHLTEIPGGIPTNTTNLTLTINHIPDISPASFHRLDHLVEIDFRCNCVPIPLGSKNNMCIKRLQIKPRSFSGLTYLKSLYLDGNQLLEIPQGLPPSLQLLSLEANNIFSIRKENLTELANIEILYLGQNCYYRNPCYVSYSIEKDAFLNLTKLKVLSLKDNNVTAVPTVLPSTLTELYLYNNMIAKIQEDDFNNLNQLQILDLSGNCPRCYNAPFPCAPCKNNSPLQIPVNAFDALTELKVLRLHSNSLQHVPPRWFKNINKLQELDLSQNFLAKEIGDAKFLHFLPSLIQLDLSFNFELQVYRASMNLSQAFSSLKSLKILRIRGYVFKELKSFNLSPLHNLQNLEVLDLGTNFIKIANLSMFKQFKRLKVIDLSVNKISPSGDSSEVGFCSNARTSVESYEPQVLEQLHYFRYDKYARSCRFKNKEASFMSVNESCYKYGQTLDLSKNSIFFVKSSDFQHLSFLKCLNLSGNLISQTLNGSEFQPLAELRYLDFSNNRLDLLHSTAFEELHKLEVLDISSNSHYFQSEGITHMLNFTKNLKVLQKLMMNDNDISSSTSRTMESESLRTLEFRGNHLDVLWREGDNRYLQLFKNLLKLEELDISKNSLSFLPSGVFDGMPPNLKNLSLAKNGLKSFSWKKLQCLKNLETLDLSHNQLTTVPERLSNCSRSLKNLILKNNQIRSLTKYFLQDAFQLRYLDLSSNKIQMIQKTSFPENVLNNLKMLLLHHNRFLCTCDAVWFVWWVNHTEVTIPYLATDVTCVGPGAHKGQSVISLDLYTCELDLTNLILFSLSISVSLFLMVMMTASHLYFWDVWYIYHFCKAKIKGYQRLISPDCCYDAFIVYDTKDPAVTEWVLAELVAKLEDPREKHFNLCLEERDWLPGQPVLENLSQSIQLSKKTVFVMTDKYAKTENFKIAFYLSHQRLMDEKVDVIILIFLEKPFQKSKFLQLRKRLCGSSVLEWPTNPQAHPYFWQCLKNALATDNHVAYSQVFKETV
Method: as §1, §2

| Structure (SMILES) | hTLR8-wt (LEC) [1] | hTLR7-wt (LEC) [2] |
| --- | --- | --- |
| CCCC[C@H](CO)Nc1nc(N)nc2cccc(C3CC3)c12 [Compound 1, (R)-2-((2-amino-5-cyclopropylquinazolin-4-yl)amino)hexan-1-ol] | 0.35 µM | > 100 µM |
| CCCC[C@H](CO)Nc1nc(N)nc2cccc(F)c12 [Compound 2, (R)-2-((2-amino-5-fluoroquinazolin-4-yl)amino)hexan-1-ol] | 0.07 µM | 27.7 µM |
| CCCC[C@H](CO)Nc1nc(N)nc2cccc(C(F)(F)F)c12 [Compound 3, (R)-2-((2-amino-5-(trifluoromethyl)quinazolin-4-yl)amino)hexan-1-ol] | 0.66 µM | > 100 µM |
| CCCC[C@H](CO)Nc1nc(N)nc2cc(C#N)ccc12 [Compound 4, (R)-2-amino-4-((1-hydroxyhexan-2-yl)amino)quinazoline-7-carbonitrile] | 0.14 µM | > 100 µM |
| CCCC[C@H](CO)Nc1nc(N)nc2cc(-c3nnco3)ccc12 [Compound 5, (R)-2-((2-amino-7-(1,3,4-oxadiazol-2-yl)quinazolin-4-yl)amino)hexan-1-ol] | 0.38 µM | > 25 µM |
| CCC[C@H](CO)Nc1nc(N)nc2c(C)cccc12 [Compound 6, (R)-2-((2-amino-8-methylquinazolin-4-yl)amino)pentan-1-ol] | 5.75 µM | > 25 µM |
| CCCC[C@H](CO)Nc1nc(N)nc2c(C)cccc12 [Compound 7, (R)-2-((2-amino-8-methylquinazolin-4-yl)amino)hexan-1-ol] | 0.46 µM | > 25 µM |
| CCCC[C@H](CO)Nc1nc(N)nc2c(Cl)cccc12 [Compound 8, (R)-2-((2-amino-8-chloroquinazolin-4-yl)amino)hexan-1-ol] | 2.72 µM | > 25 µM |
| CCCC[C@H](CO)Nc1nc(N)nc2c(F)cccc12 [Compound 9, (R)-2-((2-amino-8-fluoroquinazolin-4-yl)amino)hexan-1-ol] | 0.11 µM | > 25 µM |
| CCC[C@H](CO)Nc1nc(N)nc2c(F)cccc12 [Compound 10, (R)-2-((2-amino-8-fluoroquinazolin-4-yl)amino)pentan-1-ol] | 3.27 µM | > 25 µM |
| CCCC[C@H](COC(=O)C(C)C)Nc1nc(N)nc2c(C)cccc12 [Compound 11, (R)-2-((2-amino-8-methylquinazolin-4-yl)amino)hexyl isobutyrate] | 0.64 µM | > 25 µM |
| CCCC[C@H](CO)Nc1nc(N)nc2cccc(OC)c12 [Compound 12, (R)-2-((2-amino-5-methoxyquinazolin-4-yl)amino)hexan-1-ol] | 0.39 µM | 11.3 µM |
| CCCC[C@H](CO)Nc1nc(N)nc2cc(F)ccc12 [Compound 13, (R)-2-((2-amino-7-fluoroquinazolin-4-yl)amino)hexan-1-ol] | 0.04 µM | 29.4 µM |
| CCCC[C@H](CO)Nc1nc(N)nc2cc(C)ccc12 [Compound 14, (R)-2-((2-amino-7-methylquinazolin-4-yl)amino)hexan-1-ol] | 0.11 µM | 11.5 µM |
| CCCC[C@H](CO)Nc1nc(N)nc2cccc(Cl)c12 [Compound 15, (R)-2-((2-amino-5-chloroquinazolin-4-yl)amino)hexan-1-ol] | 0.07 µM | > 100 µM |
| CCCC[C@H](CO)Nc1nc(N)nc2cccc(C)c12 [Compound 16, (R)-2-((2-amino-5-methylquinazolin-4-yl)amino)hexan-1-ol] | 0.19 µM | > 100 µM |
| CCCC[C@H](CO)Nc1nc(N)nc2c(OC)cccc12 [Compound 17, (R)-2-((2-amino-8-methoxyquinazolin-4-yl)amino)hexan-1-ol] | 3.74 µM | > 50 µM |
| CCCC[C@H](CO)Nc1nc(N)nc2cc(C(=O)OC)ccc12 [Compound 18, Methyl (R)-2-amino-4-((1-hydroxyhexan-2-yl)amino)quinazoline-7-carboxylate] | 0.57 µM | > 100 µM |
| CCCC[C@H](CO)Nc1nc(N)nc2c(F)c(F)ccc12 [Compound 19, (R)-2-((2-amino-7,8-difluoroquinazolin-4-yl)amino)hexan-1-ol] | 0.41 µM | > 100 µM |
| CSCC[C@H](CO)Nc1nc(N)nc2cccc(F)c12 [Compound 20, (R)-2-((2-amino-5-fluoroquinazolin-4-yl)amino)-4-(methylthio)butan-1-ol] | 0.7 µM | > 50 µM |
| CC[C@H](C)[C@H](CO)Nc1nc(N)nc2cccc(F)c12 [Compound 21, (2R,3S)-2-((2-amino-5-fluoroquinazolin-4-yl)amino)-3-methylpentan-1-ol] | 0.09 µM | 1.71 µM |
| CCCC[C@H](CO)Nc1nc(N)nc2cccc(C(=O)NC)c12 [Compound 22, (R)-2-amino-4-((1-hydroxyhexan-2-yl)amino)-N-methylquinazoline-5-carboxamide] | 1.81 µM | 2.17 µM |
| CCCC[C@H](CO)Nc1nc(N)nc2cc(F)cc(F)c12 [Compound 23, (R)-2-((2-amino-5,7-difluoroquinazolin-4-yl)amino)hexan-1-ol] | 0.04 µM | 6.24 µM |
| CCCC[C@H](CO)Nc1nc(N)nc2cc(C(F)(F)F)ccc12 [Compound 24, (R)-2-((2-amino-7-(trifluoromethyl)quinazolin-4-yl)amino)hexan-1-ol] | 0.35 µM | 3.36 µM |
| CCCC[C@H](CO)Nc1nc(N)nc2cc(C(=O)N(C)C)ccc12 [Compound 25, (R)-2-amino-4-((1-hydroxyhexan-2-yl)amino)-N,N-dimethylquinazoline-7-carboxamide] | 3.89 µM | > 100 µM |
